Literature values in patent US10874768B2, “Drug eluting medical device” (priority 2017, dated 2020).

Conditions: human, 3 patients, 180 mg/m^2 infusion over 3 hours

Cmax: 5.23 µM
SMILES: CC(=O)O[C@H]1C(=O)[C@@]2(C)[C@H]([C@H](OC(=O)c3ccccc3)[C@]3(O)C[C@H](OC(=O)[C@H](O)[C@@H](NC(=O)c4ccccc4)c4ccccc4)C(C)=C1C3(C)C)[C@]1(OC(C)=O)CO[C@@H]1C[C@@H]2O [paclitaxel]
